# Reference: patent publication US8044076B2, “Phenyl derivatives and their use as immunomodulators” (Actelion Pharmaceuticals Ltd., priority 2006, dated 2011)
# Biological target: human S1P1 receptor (Homo sapiens, UniProt P21453)
# Experiment: GTPγS assay to determine EC50 values
# Type: biochemical
# Conditions: 35S-GTPγS binding, membrane preparations of CHO cells expressing recombinant human S1P1 receptor
# Experimental: GTPγS binding assays are performed in 96 well microtiter plates (Nunc, 442587) in a final volume of 200 μl, using membrane preparations of CHO cells expressing recombinant human S1P1 receptor. Assay conditions are 20 mM Hepes (Fluka, 54461), 100 mM NaCl (Fluka, 71378), 5 mM MgCl2 (Fluka, 63064), 0.1% BSA (Calbiochem, 126609), 1 μM GDP (Sigma, G-7127), 2.5% DMSO (Fluka, 41644), 50 pM ^35S-GTPγS (Amersham Biosciences, SJ1320). The pH is 7.4. Test compounds are dissolved and diluted in 100% DMSO and pre-incubated at room temperature for 30 min in 150 μl of the above assay buffer, in the absence of ^35S-GTPγS. After addition of 50 μl of ^35S-GTPγS, the assay is incubated for 1 h at rt. The assay is terminated by transfer of the reaction mixture to a Multiscreen plate (Millipore, MAHFC1H60) using a cell harvester from Packard Biosciences, and the plates are washed with ice-cold 10 mM Na2HPO4/NaH2PO4 (70%/30%), dried, sealed at the bottom and, after addition of 25 μl MicroScint20 (Packard Biosciences, order#6013621), sealed on the top. Membrane-bound ^35S-GTPγS is measured with a TopCount from Packard Biosciences.
# EC50 is the concentration of agonist inducing 50% of the maximal specific ^35S-GTPγS binding. Specific binding is determined by subtracting non-specific binding from maximal binding. […]
# The EC50 values were determined according to the method described above: […]
# human S1P1 receptor, sequence (P21453 whole entry): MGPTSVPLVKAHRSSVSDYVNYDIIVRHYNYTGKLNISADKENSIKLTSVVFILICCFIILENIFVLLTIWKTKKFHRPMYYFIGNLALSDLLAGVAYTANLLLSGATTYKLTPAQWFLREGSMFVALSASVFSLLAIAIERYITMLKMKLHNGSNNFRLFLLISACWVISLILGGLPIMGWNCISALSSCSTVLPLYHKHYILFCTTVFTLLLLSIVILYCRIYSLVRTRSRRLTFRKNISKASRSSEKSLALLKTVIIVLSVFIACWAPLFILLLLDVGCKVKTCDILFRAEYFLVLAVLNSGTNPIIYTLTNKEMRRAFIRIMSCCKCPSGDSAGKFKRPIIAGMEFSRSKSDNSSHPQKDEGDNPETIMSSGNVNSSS
row,Structure (SMILES),EC50
1,Cc1cc(-c2nc(-c3cc(C)c(OCC(O)CNC(=O)CO)c(C)c3)no2)ccc1CC(C)C (centres unmarked) [Example 20],0.8 nM
2,Cc1cc(-c2nc(-c3cc(C)c(OCC(O)CNC(=O)CO)c(C)c3)no2)ccc1OC(C)C (centres unmarked) [Example 6],0.1 nM
